Results from ChEMBL document CHEMBL5352461, “Discovery of the novel Benzo[b]thiophene 1,1-dioxide derivatives as a potent STAT3 inhibitor against idiopathic pulmonary fibrosis” (Eur J Med Chem, 2023).
The source made the active and inactive calls. No cut-off for these calls is given here.

test system: A549; experiment: Inhibition of cell migration in TGF-beta1 induced human A549 cells measured for 24 hrs by contrast-phase microscopic analysis; assay type: functional, cell-based; conditions: not given

For `O=[N+]([O-])c1ccc2c(c1)S(=O)(=O)C=C2`, the inhibition was “Active”.

species: Mus musculus; experiment: Antifibrotic activity against bleomycin-induced C57BL/6 mouse lung fibrosis model assessed as reduction in F4/80+CD11b+ macrophage in lung incubated for 30 mins by flow cytometry analysis ( Rvb = 17.96%); assay type: functional; set-up: scale not given: the % may be the effect or the level left; conditions: 0.5 h

Work on `COC(=O)c1ccc2c(c1)NC(=O)/C2=C(\Nc1ccc(N(C)C(=O)CN2CCN(C)CC2)cc1)c1ccccc1` [NINTEDANIB] yielded an Activity of 12.36%.

species: Mus musculus; experiment: Antifibrotic activity against bleomycin-induced C57BL/6 mouse lung fibrosis model assessed as reduction in CD11c+MHC II+ in dendritic cells in lung incubated for 30 mins by flow cytometry analysis ( Rvb = 23.67 %); assay type: functional; set-up: scale not given: the % may be the effect or the level left; conditions: 0.5 h

Work on `COC(=O)c1ccc2c(c1)NC(=O)/C2=C(\Nc1ccc(N(C)C(=O)CN2CCN(C)CC2)cc1)c1ccccc1` [NINTEDANIB] yielded an Activity of 20.61%.

test system: NIH3T3; experiment: Antiproliferative activity against mouse NIH3T3 cells assessed as cell growth inhibition incubated for 24 to 72 hrs by CCK-8 assay; assay type: functional, cell-based; conditions: not given

Compared with `Cc1noc(C)c1S(=O)(=O)N1CCN(C(=O)C2=Cc3ccccc3S2(=O)=O)CC1`, `O=C(C1=Cc2ccccc2S1(=O)=O)N1CCN(S(=O)(=O)c2cccs2)CC1` is 2.6-fold higher in IC50: 1.47 µM for the first, 3.87 µM for the second. The first is the more potent here.

Compared with `O=C(C1=Cc2ccccc2S1(=O)=O)N1CCN(S(=O)(=O)c2ccc3ccccc3c2)CC1`, `O=C(C1=Cc2ccccc2S1(=O)=O)N1CCN(Cc2ccc3ccccc3c2)CC1` is lower in IC50: greater than 10 µM for the first, 6.78 µM for the second. The second is the more potent here.

`O=C(Cc1cccc([N+](=O)[O-])c1)NC1CCN(C(=O)C2=Cc3ccccc3S2(=O)=O)CC1` and `O=C(Cc1ccccc1[N+](=O)[O-])NC1CCN(C(=O)C2=Cc3ccccc3S2(=O)=O)CC1` cannot be ordered by IC50: greater than 10 µM for the first, greater than 10 µM for the second.

`O=C(C1=Cc2ccccc2S1(=O)=O)N1CCN(C(=O)c2cccnc2N2CCOCC2)CC1` and `O=C(C1=Cc2ccccc2S1(=O)=O)N1CCN(C(=O)c2ccc(N3CCOCC3)nc2)CC1` are within 1.5-fold of each other in IC50: 3.42 µM for the first, 2.49 µM for the second.

`O=C(CC1CCCC1)NC1CCN(C(=O)C2=Cc3ccccc3S2(=O)=O)CC1` and `O=C(CC1CCCCC1)NC1CCN(C(=O)C2=Cc3ccccc3S2(=O)=O)CC1` cannot be ordered by IC50: greater than 10 µM for the first, greater than 10 µM for the second.

Going from `CC(C)(C)OC(=O)n1cc(CN2CCN(C(=O)C3=Cc4ccccc4S3(=O)=O)CC2)c2ccccc21` to `O=C(C1=Cc2ccccc2S1(=O)=O)N1CCN(Cc2ccccc2F)CC1`, the IC50 falls from 5.12 µM to 1 µM (5.1-fold). The second is the more potent here.

First: O=[N+]([O-])c1ccc2c(c1)S(=O)(=O)C=C2
Second: O=C(C1=Cc2ccccc2S1(=O)=O)N1CCN(Cc2ccc(C(F)(F)F)o2)CC1
The IC50 of the first is 1.6-fold lower: 1.18 µM for the first, 1.9 µM for the second.

`COC(=O)c1ccc(CN2CCN(C(=O)C3=Cc4ccccc4S3(=O)=O)CC2)cc1OC` and `COC(=O)c1cccc(CN2CCN(C(=O)C3=Cc4ccccc4S3(=O)=O)CC2)c1` are within 1.5-fold of each other in IC50: 1.24 µM for the first, 1.4 µM for the second.

Compared with `O=C(C1=Cc2ccccc2S1(=O)=O)N1CCN(C(=O)c2ccccn2)CC1`, `O=C(C1=Cc2ccccc2S1(=O)=O)N1CCN(C(=O)c2ccc(F)cn2)CC1` is 2.9-fold lower in IC50: 6.02 µM for the first, 2.09 µM for the second. The second is the more potent here.

`O=C(C1=Cc2ccccc2S1(=O)=O)N1CCN(Cc2ccc(Cl)cc2)CC1` and `Cc1ccc(CN2CCN(C(=O)C3=Cc4ccccc4S3(=O)=O)CC2)cc1` are within 1.5-fold of each other in IC50: 2.01 µM for the first, 1.66 µM for the second.

`O=C(CN1CCOCC1)NC1CCN(C(=O)C2=Cc3ccccc3S2(=O)=O)CC1` and `O=C(Cc1cccc2c1CCO2)NC1CCN(C(=O)C2=Cc3ccccc3S2(=O)=O)CC1` are within 1.5-fold of each other in IC50: 4.85 µM for the first, 3.98 µM for the second.

`O=C(C1=Cc2ccccc2S1(=O)=O)N1CCN(C(=O)c2cc(F)c(F)cc2F)CC1` and `O=C(C1=Cc2ccccc2S1(=O)=O)N1CCN(C(=O)c2scnc2Br)CC1` are within 1.5-fold of each other in IC50: 0.87 µM for the first, 0.81 µM for the second.

Going from `O=C(C1=Cc2ccccc2S1(=O)=O)N1CCN(C(=O)c2cccnc2)CC1` to `O=C(C1=Cc2ccccc2S1(=O)=O)N1CCN(C(=O)c2cc3ccccc3o2)CC1`, the IC50 falls from 8.45 µM to 1.22 µM (6.9-fold). The second is the more potent here.

Compared with `COC(=O)c1ccc(CN2CCN(C(=O)C3=Cc4ccccc4S3(=O)=O)CC2)cc1`, `COc1ccc(CN2CCN(C(=O)C3=Cc4ccccc4S3(=O)=O)CC2)cc1` is 2.8-fold higher in IC50: 0.63 µM for the first, 1.78 µM for the second. The first is the more potent here.

Compared with `O=C(C1=Cc2ccccc2S1(=O)=O)N1CCN(Cc2ccc(-c3ccccc3)cc2)CC1`, `O=C(C1=Cc2ccccc2S1(=O)=O)N1CCN(Cc2ccc(C(F)(F)F)cc2)CC1` is 4.4-fold lower in IC50: 6.47 µM for the first, 1.46 µM for the second. The second is the more potent here.

Going from `O=C(C1=Cc2ccccc2S1(=O)=O)N1CCN(S(=O)(=O)c2ccc3c(c2)CCO3)CC1` to `O=C(C1=Cc2ccccc2S1(=O)=O)N1CCN(S(=O)(=O)c2cc(F)cc(F)c2)CC1`, the IC50 falls from 8.89 µM to 1.45 µM (6.1-fold). The second is the more potent here.

Compared with `COc1cc(CN2CCN(C(=O)C3=Cc4ccccc4S3(=O)=O)CC2)cc(OC)c1`, `Cc1cccc(CN2CCN(C(=O)C3=Cc4ccccc4S3(=O)=O)CC2)c1` is 2.3-fold higher in IC50: 1.11 µM for the first, 2.55 µM for the second.

Going from `O=C(C1=Cc2ccccc2S1(=O)=O)N1CCN(Cc2ccc(S(=O)(=O)C(F)(F)F)cc2)CC1` to `COS(=O)(=O)c1ccc(CN2CCN(C(=O)C3=Cc4ccccc4S3(=O)=O)CC2)cc1`, the IC50 falls from 1.79 µM to 0.93 µM (1.9-fold). The second is the more potent here.

`O=C(NC1CCN(C(=O)C2=Cc3ccccc3S2(=O)=O)CC1)c1cccc(Cl)c1` and `O=C(NC1CCN(C(=O)C2=Cc3ccccc3S2(=O)=O)CC1)c1ccc(Cl)cc1` are within 1.5-fold of each other in IC50: 6.76 µM for the first, 6.26 µM for the second.

First: O=C(Cc1cccc(C2CC2)c1)N1CCN(C(=O)C2=Cc3ccccc3S2(=O)=O)CC1
Second: O=C(C1=Cc2ccccc2S1(=O)=O)N1CCN(Cc2cccc(F)c2)CC1
The IC50 of the first is 1.8-fold higher: 1.75 µM for the first, 0.95 µM for the second.

`O=C(C1=Cc2ccccc2S1(=O)=O)N1CCN(Cc2cccc(C(F)(F)F)c2)CC1` and `O=C(C1=Cc2ccccc2S1(=O)=O)N1CCN(Cc2cc(F)c(F)c(F)c2F)CC1` are within 1.5-fold of each other in IC50: 1.32 µM for the first, 1.26 µM for the second.

Compared with `Cc1nc(C)c(C(=O)NC2CCN(C(=O)C3=Cc4ccccc4S3(=O)=O)CC2)nc1C`, `CN(C)c1ccc(CC(=O)NC2CCN(C(=O)C3=Cc4ccccc4S3(=O)=O)CC2)cc1` is higher in IC50: 2.13 µM for the first, greater than 10 µM for the second. The first is the more potent here.

Going from `O=C(C1=Cc2ccccc2S1(=O)=O)N1CCN(Cc2c(F)c(F)c(F)c(F)c2F)CC1` to `COC(=O)c1sccc1S(=O)(=O)N1CCN(C(=O)C2=Cc3ccccc3S2(=O)=O)CC1`, the IC50 rises from 1.29 µM to 4.48 µM (3.5-fold). The first is the more potent here.

Compared with `O=C(C1=Cc2ccccc2S1(=O)=O)N1CCN(S(=O)(=O)C2CCCCC2)CC1`, `CC(C)(C)OC(=O)N1CCOC(C(=O)N2CCN(C(=O)C3=Cc4ccccc4S3(=O)=O)CC2)C1` (centres undefined) is 1.7-fold lower in IC50: 8.92 µM for the first, 5.23 µM for the second.

In the case of `COC(=O)c1ccc2c(c1)NC(=O)/C2=C(\Nc1ccc(N(C)C(=O)CN2CCN(C)CC2)cc1)c1ccccc1` [NINTEDANIB], the IC50 is reported as 2.41 µM.

species: Mus musculus; experiment: Antifibrotic activity against bleomycin-induced C57BL/6 mouse lung fibrosis model assessed as reduction in CD4-CD69+ T cell in lung incubated for 30 mins by flow cytometry analysis ( Rvb = 6.54%); assay type: functional; set-up: scale not given: the % may be the effect or the level left; conditions: 0.5 h

`COC(=O)c1ccc2c(c1)NC(=O)/C2=C(\Nc1ccc(N(C)C(=O)CN2CCN(C)CC2)cc1)c1ccccc1` [NINTEDANIB] was tested, and the Activity was 3.55%.

test system: A549; experiment: Induction of morphological changes in TGF-beta1 induced human A549 cells assessed as appearance of spindle shape cells at 200 nM measured for 24 hrs by phase contrast microscopy analysis; assay type: functional, cell-based; conditions: not given

With `O=[N+]([O-])c1ccc2c(c1)S(=O)(=O)C=C2` the Activity was “Active”.
